Laboratory results taken from patent US7910367B2, “Cell culture model and applications thereof” (L'Oreal, priority 2006, dated 2011).
No end group written: not given here.

Legend:
[1] = test system: nerve cells of the N/K/M multicellular model; test: Growth of nerve endings through the porous insert (anti-β-tubulin epifluorescence); assay type: cell-based; conditions: 10^−5 M noradrenalin, 10 days
Description: Using a multicellular model as obtained in Example 1, the cells were cultured in the absence or presence of 10^−5 M noradrenalin, for 10 days.
The N/K/M culture medium was deposited into the culture wells and into the inserts.
The various media were renewed 50/50 every day.
The nerve cells were labelled with an anti-β-tubulin monoclonal antibody (Sigma T8660) and then visualized with goat anti-mouse immunoglobulin antibody-Alexa fluor 488 conjugate (Interchim A-11029).
After thorough washing in PBS, the preparations were observed by epifluorescence (Nikon Diaphot 300 microscope) and photographed.
The photographs were taken below the insert (on the keratinocyte-neuron site).

[2] = test system: CGRP release by nerve cells; test: Measurement of CGRP release in culture supernatants of the N/K/M model (ELISA); assay type: cell-based, rat
Description: At the end of the experiment described in Example 3, the supernatants from the wells and from the inserts were collected separately and immediately frozen at −80° C. in order to analyze the CGRP content. The CGRP content was measured in the culture supernatants by means of an ELISA assay (Rat CGRP enzyme Immuno Assay Kit, Spi Bio A05482) according to the protocol recommended by the supplier. The results are expressed in μg of CGRP/ml of medium. The analysis of the results was carried out as described above.

[3] = test system: nerve cell-keratinocyte-melanocyte (N/K/M) multicellular model (melanogenesis); test: Melanin amount in nerve cell-keratinocyte-melanocyte (N/K/M) multicellular model under noradrenergic stress; assay type: cell-based, human; conditions: for amount of melanin, +noradrenalin: 10^−5 M noradrenalin alone (Control) or with CGRP8-37 10^−6 M or Calmiskin 0.03%; for melanin synthesis by melanocytes (in words): multicellular model
Description: The experimental data were analyzed by means of the PRISM® software (graph pad software). The intergroup comparisons were carried out by analysis of variance (ANOVA) using Dunnett's multiple comparison test. The comparisons between two samples were carried out by analysis using the T test. They represent the mean of 4 independent experiments. They are expressed in μg of melanin/ml.

[4] = 10 days, mean of 4 independent experiments

`NC[C@H](O)c1ccc(O)c(O)c1` [noradrenalin] was tested, and the “density of the cell extensions (nerve endings crossing the insert)” value [1] was “increased”, the “CGRP release in the insert (in words)” value ([2]; insert supernatant, 10^−5 M noradrenalin, with or without 0.03% Calmiskin) was “very substantial” and the “CGRP content, insert” value ([2]; supernatant of inserts (nerve cells), 10 days, 10^−5 M noradrenalin alone or with 0.03% Calmiskin) was 493.86 ± 11.57 μg of CGRP/ml of medium. The “CGRP content, culture well” value ([2]; supernatant of wells (keratinocyte/melanocyte side), 10 days, 10^−5 M noradrenalin alone or with 0.03% Calmiskin) was 170.48 ± 19.47 μg of CGRP/ml of medium, the “change in amount of melanin synthesized in the cocultures” value ([3]; 10^−5 M noradrenalin versus control without noradrenalin, 10 days) was “+15%” and the “amount of melanin, +noradrenalin” value [3, 4] was 25.77 ± 0.72 μg of melanin/ml. The “melanin synthesis by melanocytes (in words)” value [3] was “increase in melanin synthesis”.
With “CGRP8-37: reference CGRP receptor antagonist (VTHRLAGLLSRSGGVVKNNFVPTNVGSKAF; ends and bridges not checked; UniProt P06881 90-119, looked up, fragment)” the “amount of melanin, +noradrenalin” value [3, 4] was 21.35 ± 0.91 μg of melanin/ml, the “amount of melanin, without noradrenalin” value ([3]; 10 days, no noradrenalin, CGRP8-37 10^−6 M, Calmiskin 0.03%, mean of 4 independent experiments) was 19.33 ± 0.48 μg of melanin/ml and the “melanin synthesis by melanocytes (in words)” value [3] was “considerable decrease in melanin synthesis”. The “change in amount of melanin in the presence of noradrenalin” value ([3]; versus 10^−5 M noradrenalin alone, Calmiskin 0.03%, CGRP8-37 10^−6 M, 10 days) was −17.2%.
